Source: patent EP4810508A1, “ARABINOSE DERIVATIVE COMPOUND, AND COMPOSITION COMPRISING SAME FOR PREVENTING OR TREATING DEGENERATIVE BRAIN DISEASES” (Digmbio. Inc., priority 2023, dated 2025)

System: HRE/Luc/HEK293 cells
Assay: HRE (Hypoxia Response Element) luciferase assay
Type: cell-based, human
Conditions: for fold induction at 10 µM / fold induction at 100 µM: Homo sapiens, HEK293, 18 h, Table 2 (Examples 37-74, 52); for fold induction at 10 µM: read-out: HKt-increasing 10uM; for fold induction at 100 µM: read-out: HKt-increasing 100uM; for HRE expression: low concentration of 1 µM
Procedure: • (a) HRE assay: Confirmation of increased in HRE expression levels by the test substance relative to the vehicle in HRE/Luc/HEK293 cells • * Less than a twofold increase at 100 µM, • ** More than a twofold increase at 100 µM, • *** More than a twofold increase at 10 µM, • **** More than a twofold increase at 1 µM, • Not performed.
It has been reported that in the brains of AD patients, blood supply is mostly insufficient, resulting in oxygen levels being up to 50% lower than those of normal individuals, leading to increased oxidative stress (ROS) and neuroinflammation. It has also been studied that when the HIF-1α (hypoxia inducible factor-1) factor binds to the HRE (hypoxia response element), it increases VEGF (vascular endothelial growth factor), which promotes the formation of new blood vessels, thereby increasing oxygen levels in the brain and helping to inhibit nerve cell damage.
A reporter gene containing luciferase, capable of verifying the level of HRE expression, was inserted into HEK-293 human embryonic kidney cells, and HRE/Luc/HEK293 cells were constructed by inserting a plasmid (HRE/Luc) with luciferase attached downstream of the HRE promoter that binds to HIF-1α using lipofectamine (Invitrogen).
To perform HRE luciferase analysis, HRE/Luc/HEK293 cells were seeded in 96-well culture plates at a cell density of 4 x 10^4 per well in minimal essential medium (MEM) containing 10% fetal bovine serum. After one day, the cell medium was removed and replaced with medium mixed with various concentrations of example compounds. Six hours after compound pretreatment, HRE/Luc/HEK293 cells were cultured under hypoxic conditions (O2 0.1%) for 18 hours. Subsequently, the cells were washed with phosphate buffer, lysed with lysis buffer, and then the luciferase reagent (Promega) for luciferase analysis was added. Afterward, changes in HRE expression levels associated with HIF-1 signaling were evaluated by measuring luminescence using an Infinite200 (Tecan).

SMILES | fold induction at 10 µM | fold induction at 100 µM | HRE expression
COc1ccc(Cc2ccc(O[C@H]3OC[C@H](O)[C@H](O)[C@H]3O)cc2)c(F)c1 [Example 50, (2R,3R,4S,5S)-2-(4-(2-fluoro-4-methoxybenzyl)phenoxy)tetrahydro-2H-pyran-3,4,5-triol] | 1 | 1.4 | –
COc1ccc(Cc2ccc(O[C@H]3OC[C@H](O)[C@H](O)[C@H]3O)c(Cl)c2)cc1 [Example 51, (2R,3R,4S,5S)-2-(2-chloro-4-(4-methoxybenzyl)phenoxy)tetrahydro-2H-pyran-3,4,5-triol] | 1.3 | 2.9 | –
CC(C)c1ccc(-c2ccc(Cc3ccc(O[C@H]4OC[C@H](O)[C@H](O)[C@H]4O)cc3)cc2)cc1 [Example 52, (2R,3R,4S,5S)-2-(4-((4'-isopropyl-[1,1'-biphenyl]-4-yl)methyl)phenoxy)tetrahydro-2H-pyran-3,4,5-triol] | 2 | 3.6 | –
CC(C)c1ccc(Oc2cccc(O[C@H]3OC[C@H](O)[C@H](O)[C@H]3O)c2)cc1 [Example 54, (2R,3R,4S,5S)-2-(3-(4-isopropylphenoxy)phenoxy)tetrahydro-2H-pyran-3,4,5-triol] | 1 | 1.5 | –
COc1ccc(Oc2ccc(O[C@H]3OC[C@H](O)[C@H](O)[C@H]3O)cc2)cc1 [Example 55, (2R,3R,4S,5S)-2-(4-(4-methoxyphenoxy)phenoxy)tetrahydro-2H-pyran-3,4,5-triol] | 1.8 | 2.9 | –
CC(C)c1ccc(Oc2ccc(O[C@H]3OC[C@H](O)[C@H](O)[C@H]3O)c(Cl)c2)cc1 [Example 57, (2R,3R,4S,5S)-2-(2-chloro-4-(4-isopropylphenoxy)phenoxy)tetrahydro-2H-pyran-3,4,5-triol] | 3.2 | 2.8 | more than threefold
CC(C)c1ccc(Oc2ccc(O[C@H]3OC[C@H](F)[C@H](O)[C@H]3O)cc2)cc1 [Example 58, (2R,3R,4R,5S)-5-fluoro-2-(4-(4-isopropylphenoxy)phenoxy)tetrahydro-2H-pyran-3,4-diol] | 2.6 | 2.2 | –
CC(C)c1ccc(Oc2ccc(O[C@H]3O[C@H](CO)[C@H](O)[C@H](O)[C@H]3O)cc2)cc1 [Example 59, (2R,3R,4S,5R,6R)-2-(hydroxymethyl)-6-(4-(4-isopropylphenoxy)phenoxy)tetrahydro-2H-pyran-3,4,5-triol] | 1.8 | 2.8 | –
CO[C@@H]1[C@@H](O)[C@@H](Oc2ccc(Oc3ccc(C(C)C)cc3)cc2)OC[C@@H]1O [Example 60, (2R,3R,4S,5S)-2-(4-(4-isopropylphenoxy)phenoxy)-4-methoxytetrahydro-2H-pyran-3,5-diol] | 2.3 | 1.6 | –
CO[C@H]1CO[C@H](Oc2ccc(Oc3ccc(C(C)C)cc3)cc2)[C@H](O)[C@H]1O [Example 61, (2R,3R,4R,5S)-2-(4-(4-isopropylphenoxy)phenoxy)-5-methoxytetrahydro-2H-pyran-3,4-diol] | 1.1 | 1.3 | –
CO[C@H]1[C@@H](Oc2ccc(Oc3ccc(C(C)C)cc3)cc2)OC[C@H](O)[C@@H]1O [Example 62, (3S,4S,5R,6R)-6-(4-(4-isopropylphenoxy)phenoxy)-5-methoxytetrahydro-2H-pyran 3,4-diol] | 2.3 | 2.2 | –
CC(C)c1ccc(Oc2ccc(O[C@H]3OC[C@H](O)[C@H](O)[C@H]3F)cc2)cc1 [Example 63, (3S,4S,5R,6R)-5-fluoro-6-(4-(4-isopropylphenoxy)phenoxy)tetrahydro-2H-pyran-3,4-diol] | 2.4 | 2.3 | –
CC(C)c1ccc(Oc2ccc(O[C@H]3OC[C@@H](F)[C@H](O)[C@H]3O)cc2)cc1 [Example 64, (2R,3R,4R,5R)-5-fluoro-2-(4-(4-isopropylphenoxy)phenoxy)tetrahydro-2H-pyran-3,4-diol] | 2.4 | 2.3 | –
CC(C)c1ccc(Oc2ccc(O[C@H]3OC[C@H](O)[C@H](O)[C@@H]3F)cc2)cc1 [Example 65, (3S,4S,5S,6R)-5-fluoro-6-(4-(4-isopropylphenoxy)phenoxy)tetrahydro-2H-pyran-3,4-diol] | 2.6 | 2.4 | –
CC(C)c1ccc(Oc2ccc(O[C@@H]3C[C@@H](O)[C@@H](O)CO3)cc2)cc1 [Example 66, (3S,4R,6R)-6-(4-(4-isopropylphenoxy)phenoxy)tetrahydro-2H-pyran-3,4-diol] | 2.9 | 2.2 | –
CC(C)c1ccc(Oc2ccc(O[C@H]3OC[C@@H](O)[C@H](O)[C@H]3O)c(Cl)c2)cc1 [Example 67, (2R,3R,4S,5R)-2-(2-chloro-4-(4-isopropylphenoxy)henoxy)tetrahydro-2H-pyran-3,4,5-triol] | 3.5 | 2.6 | more than threefold
CC(C)c1ccc(Oc2ccc(O[C@H]3OC[C@H](O)[C@H](O)[C@H]3O)c(F)c2)cc1 [Example 68, (2R,3R,4S,5S)-2-(2-fluoro-4-(4-isopropylphenoxy)phenoxy)tetrahydro-2H-pyran-3,4,5-triol] | 4.3 | 4.4 | more than threefold
CC(C)c1ccc(Oc2ccc(O[C@H]3OC[C@H](O)[C@H](O)[C@H]3N=[N+]=[N-])cc2)cc1 [Example 69, (3S,4R,5R,6R)-5-azido-6-(4-(4-isopropylphenoxy)phenoxy) tetrahydro-2H-pyra-3,4-diol] | 1.7 | 3 | –
CC(C)c1ccc(Oc2ccc(O[C@H]3OC[C@H](O)[C@H](O)[C@H]3N)cc2)cc1 [Example 70, (3S,4R,5R,6R)-5-amino-6-(4-(4-isopropylphenoxy)phenoxy)tetrahydro-2H-pyran-3,4-diol] | 1.2 | 3.1 | –
COc1ccc(C(=O)c2ccc(O[C@H]3OC[C@H](O)[C@H](O)[C@H]3O)cc2)cc1 [Example 71, (4-methoxyphenyl)(4-(((2R,3R,4S,5S)-3,4,5-trihydroxytetrahydro-2H-pyran-2-yl)oxy)phenyl)methanone] | 1.3 | 2 | –
N#Cc1ccc(C(=O)c2ccc(O[C@@H]3OC[C@H](O)[C@H](O)[C@H]3O)cc2)cc1 [Example 72, 4-(4-(((2S,3R,4S,5S)-3,4,5-trihydroxytetrahydro-2H-pyran-2-yl)oxy)benzoyl)benzonitrile] | 1 | 1.3 | –
CC[C@H]1CC[C@H](Cc2ccc(O[C@H]3OC[C@H](O)[C@H](O)[C@H]3O)cc2)CC1 [Example 73, (2R,3R,4S,5S)-2-(4-(((1R,4R)-4-ethylcyclohexyl)methyl)phenoxy)tetrahydro-2H-pyran-3,4,5-triol] | 2.1 | 3 | –
CC(C)[C@H]1CC[C@H](Cc2ccc(O[C@H]3OC[C@H](O)[C@H](O)[C@H]3O)cc2)CC1 [Example 74, (2R,3R,4S,5S)-2-(4-(((1R,4R)-4-isopropylcyclohexyl)methyl)phenoxy)tetrahydro-2H-pyran-3,4,5-triol] | 1.9 | 3 | –
